Data taken from ChEMBL document CHEMBL2429821, “A Casein kinase 1/Checkpoint kinase 1 pyrazolo-pyridine protein kinase inhibitor as novel activator of the p53 pathway” (Bioorg Med Chem Lett, 2013).

Legend:
[1] = target: Insulin receptor-related protein (Homo sapiens) (UniProt P14616); assay: Inhibition of human IRR assessed as residual activity at 1 uM relative to control
[2] = target: RAC-beta serine/threonine-protein kinase (Homo sapiens) (UniProt P31751); assay: Inhibition of human PKBbeta assessed as residual activity at 10 uM relative to control
[3] = target: Cyclin-dependent kinase 2 (Homo sapiens) (UniProt P24941); assay: Inhibition of human CDK2 assessed as residual activity at 1 uM relative to control
[4] = target: Myosin light chain kinase, smooth muscle (Homo sapiens) (UniProt Q15746); assay: Inhibition of human smMLCK assessed as residual activity at 10 uM relative to control
[5] = target: Mitogen-activated protein kinase 8 (Homo sapiens) (UniProt P45983); assay: Inhibition of human JNK1 assessed as residual activity at 10 uM relative to control
[6] = target: Tyrosine-protein kinase Yes (Homo sapiens) (UniProt P07947); assay: Inhibition of human YES1 assessed as residual activity at 10 uM relative to control
[7] = target: Casein kinase II (Homo sapiens) (UniProt P67870+P68400+P19784); assay: Inhibition of human CK2 assessed as residual activity at 10 uM relative to control; type: protein-complex assay
[8] = target: T1, Serine/threonine-protein kinase D1 (Homo sapiens) (UniProt Q15139); assay: Inhibition of human PKD1 assessed as residual activity at 1 uM relative to control
T1 sequence (whole entry): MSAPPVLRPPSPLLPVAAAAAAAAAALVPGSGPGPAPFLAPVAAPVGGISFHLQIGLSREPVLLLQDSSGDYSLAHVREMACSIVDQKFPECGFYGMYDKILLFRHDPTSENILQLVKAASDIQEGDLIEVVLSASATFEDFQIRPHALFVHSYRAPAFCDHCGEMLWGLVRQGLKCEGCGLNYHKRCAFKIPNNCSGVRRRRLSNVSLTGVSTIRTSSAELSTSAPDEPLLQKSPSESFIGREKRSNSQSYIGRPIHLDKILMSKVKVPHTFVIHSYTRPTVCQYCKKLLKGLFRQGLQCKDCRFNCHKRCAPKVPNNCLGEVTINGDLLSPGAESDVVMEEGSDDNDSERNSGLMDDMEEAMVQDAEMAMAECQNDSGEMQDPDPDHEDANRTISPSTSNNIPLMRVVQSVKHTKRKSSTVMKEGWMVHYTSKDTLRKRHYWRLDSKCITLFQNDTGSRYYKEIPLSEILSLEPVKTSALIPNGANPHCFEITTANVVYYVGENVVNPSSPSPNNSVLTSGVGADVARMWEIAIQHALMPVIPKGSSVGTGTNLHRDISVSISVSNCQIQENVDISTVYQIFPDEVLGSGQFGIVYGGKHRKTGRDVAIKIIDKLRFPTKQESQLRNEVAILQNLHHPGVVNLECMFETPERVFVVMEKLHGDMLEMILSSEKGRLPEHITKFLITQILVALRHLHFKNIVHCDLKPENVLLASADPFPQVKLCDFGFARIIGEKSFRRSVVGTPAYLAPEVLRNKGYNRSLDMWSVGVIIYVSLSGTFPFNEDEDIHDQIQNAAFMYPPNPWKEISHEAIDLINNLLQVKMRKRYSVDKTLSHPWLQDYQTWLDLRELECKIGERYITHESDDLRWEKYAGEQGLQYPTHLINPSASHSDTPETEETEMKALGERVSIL

[9] = target: Calcium/calmodulin-dependent protein kinase type 1 (Homo sapiens) (UniProt Q14012); assay: Inhibition of human CAMK1 assessed as residual activity at 10 uM relative to control
[10] = target: 3-phosphoinositide-dependent protein kinase 1 (Homo sapiens) (UniProt O15530); assay: Inhibition of human PDK1 assessed as residual activity at 1 uM relative to control
[11] = target: Proto-oncogene tyrosine-protein kinase Src (Homo sapiens) (UniProt P12931); assay: Inhibition of human SRC assessed as residual activity at 10 uM relative to control
[12] = target: T2, Inhibitor of nuclear factor kappa-B kinase subunit epsilon (Homo sapiens) (UniProt Q14164); assay: Inhibition of human IKKepsilon assessed as residual activity at 1 uM relative to control
T2 sequence (whole entry): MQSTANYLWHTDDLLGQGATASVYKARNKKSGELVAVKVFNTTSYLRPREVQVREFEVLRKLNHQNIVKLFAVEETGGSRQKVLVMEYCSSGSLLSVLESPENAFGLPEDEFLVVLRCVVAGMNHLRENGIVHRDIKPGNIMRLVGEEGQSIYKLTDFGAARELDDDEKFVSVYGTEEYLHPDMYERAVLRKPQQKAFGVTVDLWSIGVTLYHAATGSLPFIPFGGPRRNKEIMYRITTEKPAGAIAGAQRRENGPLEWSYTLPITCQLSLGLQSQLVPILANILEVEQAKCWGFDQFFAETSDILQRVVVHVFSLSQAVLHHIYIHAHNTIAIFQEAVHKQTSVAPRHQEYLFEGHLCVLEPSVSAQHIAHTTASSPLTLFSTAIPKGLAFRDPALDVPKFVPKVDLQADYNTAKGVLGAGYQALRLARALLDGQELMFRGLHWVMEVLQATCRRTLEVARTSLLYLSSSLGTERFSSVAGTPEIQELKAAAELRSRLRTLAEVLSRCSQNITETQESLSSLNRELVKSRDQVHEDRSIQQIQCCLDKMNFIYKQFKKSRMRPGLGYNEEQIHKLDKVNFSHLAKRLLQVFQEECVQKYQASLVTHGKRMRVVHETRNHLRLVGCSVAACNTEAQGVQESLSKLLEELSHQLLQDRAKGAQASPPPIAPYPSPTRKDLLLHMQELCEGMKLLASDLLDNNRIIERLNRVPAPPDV

[13] = target: Ribosomal protein S6 kinase alpha-5 (Homo sapiens) (UniProt O75582); assay: Inhibition of human MSK1 assessed as residual activity at 1 uM relative to control
[14] = target: Serine/threonine-protein kinase PLK1 (Homo sapiens) (UniProt P53350); assay: Inhibition of human PLK1 assessed as residual activity at 10 uM relative to control
Chain of Serine/threonine-protein kinase PLK1 (Homo sapiens) (P53350 whole entry): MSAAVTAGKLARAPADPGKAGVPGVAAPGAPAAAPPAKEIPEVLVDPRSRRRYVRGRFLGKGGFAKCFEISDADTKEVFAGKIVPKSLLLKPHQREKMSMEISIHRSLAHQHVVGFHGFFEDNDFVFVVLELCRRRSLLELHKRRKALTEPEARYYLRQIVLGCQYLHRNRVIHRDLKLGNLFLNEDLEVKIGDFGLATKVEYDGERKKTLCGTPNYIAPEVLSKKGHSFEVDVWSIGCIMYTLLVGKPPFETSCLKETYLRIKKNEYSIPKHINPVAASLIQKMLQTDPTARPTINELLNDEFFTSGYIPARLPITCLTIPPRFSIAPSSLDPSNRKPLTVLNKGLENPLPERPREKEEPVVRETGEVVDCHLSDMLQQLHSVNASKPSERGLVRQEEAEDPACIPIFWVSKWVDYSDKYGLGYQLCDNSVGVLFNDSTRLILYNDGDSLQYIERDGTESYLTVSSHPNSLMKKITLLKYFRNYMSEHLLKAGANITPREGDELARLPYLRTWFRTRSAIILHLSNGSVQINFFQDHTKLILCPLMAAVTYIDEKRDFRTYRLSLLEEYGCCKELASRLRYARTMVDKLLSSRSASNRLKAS

Chain of Insulin receptor-related protein (Homo sapiens) (P14616 27-742 limits assumed): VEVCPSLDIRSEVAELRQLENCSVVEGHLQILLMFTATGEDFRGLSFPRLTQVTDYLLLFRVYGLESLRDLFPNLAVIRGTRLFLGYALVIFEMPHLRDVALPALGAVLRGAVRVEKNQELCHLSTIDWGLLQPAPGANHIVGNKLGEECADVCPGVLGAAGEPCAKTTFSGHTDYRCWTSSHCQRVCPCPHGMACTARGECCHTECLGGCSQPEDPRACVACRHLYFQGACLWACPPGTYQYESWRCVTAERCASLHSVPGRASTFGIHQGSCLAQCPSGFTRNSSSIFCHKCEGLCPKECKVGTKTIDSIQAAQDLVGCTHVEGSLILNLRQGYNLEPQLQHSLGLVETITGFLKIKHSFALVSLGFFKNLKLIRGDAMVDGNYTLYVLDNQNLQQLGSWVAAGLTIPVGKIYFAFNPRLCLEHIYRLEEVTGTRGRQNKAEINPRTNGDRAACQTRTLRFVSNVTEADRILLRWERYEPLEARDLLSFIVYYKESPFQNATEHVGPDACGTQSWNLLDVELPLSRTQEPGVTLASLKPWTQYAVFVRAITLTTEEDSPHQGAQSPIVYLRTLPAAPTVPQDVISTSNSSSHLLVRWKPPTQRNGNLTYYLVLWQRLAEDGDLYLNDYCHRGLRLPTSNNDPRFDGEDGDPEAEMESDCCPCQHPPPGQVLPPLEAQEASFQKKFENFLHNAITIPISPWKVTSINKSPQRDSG
Chain of Insulin receptor-related protein (Homo sapiens) (P14616 747-1297 limits assumed): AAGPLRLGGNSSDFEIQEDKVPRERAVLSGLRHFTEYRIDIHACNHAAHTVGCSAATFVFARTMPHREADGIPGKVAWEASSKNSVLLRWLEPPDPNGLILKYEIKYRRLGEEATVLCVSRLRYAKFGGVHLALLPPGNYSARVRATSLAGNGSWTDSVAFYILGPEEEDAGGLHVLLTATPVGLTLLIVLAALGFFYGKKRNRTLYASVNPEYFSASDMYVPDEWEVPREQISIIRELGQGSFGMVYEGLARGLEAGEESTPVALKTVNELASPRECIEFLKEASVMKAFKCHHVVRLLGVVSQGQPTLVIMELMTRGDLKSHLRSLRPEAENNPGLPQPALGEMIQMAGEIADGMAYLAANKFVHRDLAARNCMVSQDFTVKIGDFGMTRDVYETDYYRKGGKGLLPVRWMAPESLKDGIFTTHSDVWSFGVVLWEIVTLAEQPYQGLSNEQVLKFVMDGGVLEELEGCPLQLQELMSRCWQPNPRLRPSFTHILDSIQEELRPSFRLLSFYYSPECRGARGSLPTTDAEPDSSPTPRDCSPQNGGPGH
Chain of RAC-beta serine/threonine-protein kinase (Homo sapiens) (P31751 whole entry): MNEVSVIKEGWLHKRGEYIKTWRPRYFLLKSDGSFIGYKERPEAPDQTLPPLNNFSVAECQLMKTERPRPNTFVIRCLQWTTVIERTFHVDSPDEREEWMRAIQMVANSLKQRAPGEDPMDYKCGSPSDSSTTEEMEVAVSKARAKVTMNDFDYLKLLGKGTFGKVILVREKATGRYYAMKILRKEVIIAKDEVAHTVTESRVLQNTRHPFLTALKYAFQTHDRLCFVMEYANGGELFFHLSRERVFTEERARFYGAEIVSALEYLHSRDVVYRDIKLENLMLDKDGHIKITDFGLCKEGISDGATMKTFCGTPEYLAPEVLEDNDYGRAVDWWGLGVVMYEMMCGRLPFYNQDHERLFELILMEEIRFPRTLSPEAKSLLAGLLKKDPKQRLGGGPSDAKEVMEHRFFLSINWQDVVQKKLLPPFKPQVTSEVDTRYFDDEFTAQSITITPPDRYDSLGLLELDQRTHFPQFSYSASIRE
Chain of Calcium/calmodulin-dependent protein kinase type 1 (Homo sapiens) (Q14012 whole entry, looked up): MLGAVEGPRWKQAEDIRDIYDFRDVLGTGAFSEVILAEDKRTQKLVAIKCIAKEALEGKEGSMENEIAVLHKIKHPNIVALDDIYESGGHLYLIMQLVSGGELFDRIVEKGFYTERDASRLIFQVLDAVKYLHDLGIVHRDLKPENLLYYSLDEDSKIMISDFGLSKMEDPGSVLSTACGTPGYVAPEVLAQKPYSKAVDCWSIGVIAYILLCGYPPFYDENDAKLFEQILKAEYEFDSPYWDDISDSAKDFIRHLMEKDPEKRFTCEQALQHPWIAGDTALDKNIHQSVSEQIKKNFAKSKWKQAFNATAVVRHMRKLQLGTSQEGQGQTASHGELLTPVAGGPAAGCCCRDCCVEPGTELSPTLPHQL
Chain of Ribosomal protein S6 kinase alpha-5 (Homo sapiens) (O75582 whole entry, looked up): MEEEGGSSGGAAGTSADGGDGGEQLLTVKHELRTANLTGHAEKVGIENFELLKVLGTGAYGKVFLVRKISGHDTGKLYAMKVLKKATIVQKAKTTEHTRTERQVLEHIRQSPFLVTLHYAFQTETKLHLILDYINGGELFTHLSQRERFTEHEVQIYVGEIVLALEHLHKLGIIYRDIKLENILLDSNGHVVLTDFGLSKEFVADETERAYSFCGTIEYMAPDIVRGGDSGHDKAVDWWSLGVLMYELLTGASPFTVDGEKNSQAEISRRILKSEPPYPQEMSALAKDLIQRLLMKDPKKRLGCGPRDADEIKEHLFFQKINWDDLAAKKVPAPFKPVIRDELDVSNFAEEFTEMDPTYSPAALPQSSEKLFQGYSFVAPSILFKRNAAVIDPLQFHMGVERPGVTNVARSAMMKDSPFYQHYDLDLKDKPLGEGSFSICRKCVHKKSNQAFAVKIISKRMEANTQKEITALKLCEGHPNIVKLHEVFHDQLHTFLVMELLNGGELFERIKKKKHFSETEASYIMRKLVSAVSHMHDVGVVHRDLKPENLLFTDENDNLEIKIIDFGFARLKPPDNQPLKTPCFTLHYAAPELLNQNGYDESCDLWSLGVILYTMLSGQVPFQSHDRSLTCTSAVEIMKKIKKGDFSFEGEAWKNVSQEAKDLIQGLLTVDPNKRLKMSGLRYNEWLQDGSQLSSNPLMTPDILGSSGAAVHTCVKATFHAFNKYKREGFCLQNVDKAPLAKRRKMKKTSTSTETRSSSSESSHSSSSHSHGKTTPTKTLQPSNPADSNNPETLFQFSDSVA
Chain of 3-phosphoinositide-dependent protein kinase 1 (Homo sapiens) (O15530 whole entry, looked up): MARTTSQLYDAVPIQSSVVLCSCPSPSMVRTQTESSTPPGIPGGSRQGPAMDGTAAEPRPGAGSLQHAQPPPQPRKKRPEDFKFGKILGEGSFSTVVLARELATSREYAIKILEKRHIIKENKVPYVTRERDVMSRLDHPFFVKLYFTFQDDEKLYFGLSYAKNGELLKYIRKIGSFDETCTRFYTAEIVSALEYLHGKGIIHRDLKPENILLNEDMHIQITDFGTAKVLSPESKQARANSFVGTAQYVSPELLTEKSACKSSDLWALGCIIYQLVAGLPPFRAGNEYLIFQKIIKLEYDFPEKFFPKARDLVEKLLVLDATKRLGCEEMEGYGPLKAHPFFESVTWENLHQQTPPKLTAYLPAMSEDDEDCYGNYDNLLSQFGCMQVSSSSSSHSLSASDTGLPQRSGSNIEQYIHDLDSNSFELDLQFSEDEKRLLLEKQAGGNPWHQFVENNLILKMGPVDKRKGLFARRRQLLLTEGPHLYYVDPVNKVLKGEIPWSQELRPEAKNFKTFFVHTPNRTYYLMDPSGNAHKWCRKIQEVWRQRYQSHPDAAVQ
Chain of Proto-oncogene tyrosine-protein kinase Src (Homo sapiens) (P12931 2-536 limits assumed): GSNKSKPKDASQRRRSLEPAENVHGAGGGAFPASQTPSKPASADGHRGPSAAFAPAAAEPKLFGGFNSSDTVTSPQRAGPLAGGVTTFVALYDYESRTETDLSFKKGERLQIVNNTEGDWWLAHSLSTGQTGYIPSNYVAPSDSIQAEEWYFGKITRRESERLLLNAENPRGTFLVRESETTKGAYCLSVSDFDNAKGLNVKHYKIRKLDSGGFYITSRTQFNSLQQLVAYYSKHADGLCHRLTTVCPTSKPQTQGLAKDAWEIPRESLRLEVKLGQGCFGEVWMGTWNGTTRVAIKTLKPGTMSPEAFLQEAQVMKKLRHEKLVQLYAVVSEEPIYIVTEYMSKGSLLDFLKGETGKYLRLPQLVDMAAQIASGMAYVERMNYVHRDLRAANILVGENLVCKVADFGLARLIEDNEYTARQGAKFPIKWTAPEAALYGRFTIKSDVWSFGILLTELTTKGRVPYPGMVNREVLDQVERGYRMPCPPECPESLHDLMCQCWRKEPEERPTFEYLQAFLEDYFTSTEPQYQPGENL

SMILES	Activity [1]	Activity [2]	Activity [3]	Activity [4]	Activity [5]	Activity [6]	Activity [7]	Activity [8]	Activity [9]	Activity [10]	Activity [11]	Activity [12]	Activity [13]	Activity [14]
CC(=O)Nc1cccc(-c2cnc3[nH]nc(C)c3c2)c1	73.9%	94%	76.7%	45.6%	66.9%	56.9%	80.5%	108%	68.4%	95.8%	23.8%	93.8%	95.3%	95.5%
CCCC(=O)Nc1n[nH]c2ncc(-c3cccnc3)cc12	61%	91%	9%	62%	92%	54%	68%	76%	83%	108%	72%	113%	70%	80%
CC(=O)Nc1nccc(-c2c(-c3ccccc3)noc2C)n1	83.2%	84%	92.2%	79.3%	70.3%	78.2%	107%	80.7%	71%	91.4%	91.9%	85.1%	82.7%	81.6%
